{"source": "paper PMC11768839", "about": "(Viruses, 2024)", "key": {"influenza PR8": {"test_system": "influenza PR8", "assay_type": "cell-based, Influenza A virus PR8"}}}
{"smiles": "O=[N+]([O-])c1ccc(Nc2ccc(Cl)c(C(F)(F)F)c2)c2nonc12", "note": "[Compound 5342191, N-[4-chloro-3-(trifluoromethyl)phenyl]-7-nitro-2,1,3-benzoxadiazol-4-amine]", "values": [{"measurement": "sensitivity of selected influenza PR8 virus to EC90 dose", "setting": "influenza PR8", "result": "remained sensitive"}, {"measurement": "sensitivity of selected HCoV-229E virus to EC90 dose", "setting": "HCoV-229E", "result": "remained sensitive"}]}
